Results taken from patent publication US20110172416A1, “AMIDINE DERIVATIVE” (Ajinomoto Co., Inc., priority 2008, published 2011).

Tests used:
human plasma = assay: Measurement of anti-blood coagulant activity (aPTT measurement method); assay type: biochemical; conditions: negative logarithmic value of concentration at which aPTT of the control was double-extended
Method: The test was performed according to an aPTT measurement method using a fully-automated blood coagulation time measuring apparatus Sysmex CA-1500. In a sample tube (MS-18, Japan Medical Science) were placed DDVP solution (10 mg/ml, DDVP standard product, Wako Corporation, 4 μL), a solution (20 μL) of a test compound, and human plasma (human plasma for blood coagulation test, GCH-100A, Sysmex Corporation, 180 μL) and this was used as a test sample. The test sample (50 μL) was incubated at 37° C. for 1 min, APTT (cephalin derived from rabbit brain, DADE Behiring, 50 μL) was added, and the mixture was further incubated at 37° C. for 2 min. To the sample solution was added calcium chloride (0.02 M, 50 μL), and the time before coagulation of the plasma was automatically measured.
The anti-blood coagulation activity was shown by the negative logarithmic value of a concentration at which aPTT of the control was double-extended as paPTT2.

FXa = FXa (Homo sapiens, UniProt P00742); assay: Measurement of activated factor X activity-inhibitory activity (chromogenic substrate S-2222); assay type: biochemical; conditions: negative logarithmic value of concentration suppressing reaction rate of control to 50%
Sequence of FXa (P00742 235-488 limits assumed): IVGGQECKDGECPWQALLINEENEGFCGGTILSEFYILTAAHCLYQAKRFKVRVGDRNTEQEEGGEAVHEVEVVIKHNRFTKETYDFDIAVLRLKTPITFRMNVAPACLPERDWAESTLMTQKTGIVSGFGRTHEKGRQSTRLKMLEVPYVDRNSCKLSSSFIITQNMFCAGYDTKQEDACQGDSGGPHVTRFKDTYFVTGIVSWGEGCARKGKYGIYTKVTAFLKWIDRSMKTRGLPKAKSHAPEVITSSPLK
Sequence of FXa (P00742 41-179 partner limits assumed): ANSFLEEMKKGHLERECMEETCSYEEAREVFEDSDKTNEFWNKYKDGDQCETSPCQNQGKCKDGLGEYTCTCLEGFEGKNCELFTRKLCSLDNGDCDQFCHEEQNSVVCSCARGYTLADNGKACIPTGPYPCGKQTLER
Method: (§1) Using a 96 well plate (#3396, Costar), Tris-HCl buffer (100 mM, 130 μL) containing 0.02% Tween 20, 0.1% PEG6000 and 0.2 M NaCl was blended with FXa (0.015 U/ml, 10 μL) and a test compound (10 μL) for 10 min, and a chromogenic substrate (0.2 mM, S-2222, 50 μL) was added. Using microplate reader Benchmark Plus (BIO-RAD), the reaction rate was measured from the time course changes in the absorbance at 405 nm. The reaction rate of the control was taken as 100%, and a negative logarithmic value of a concentration at which the reaction rate of the control could be suppressed to 50% was taken as the pIC50 value. The results are shown by pIC50 (FXa) in Table 2.

[1] = Evaluation of stability in plasma; assay type: in vitro ADME; conditions: human plasma, 37° C., calculated from quantitative lower limit at 2 min when below quantification limit
Method: To human plasma (495 μL) was added a solution (5 μL) of the test compound prepared to 100 μg/mL (final drug solution concentration 1 μg/mL), and the mixture was incubated at 37° C. At 0 min, 2 min, 5 min, 10 min, 30 min and 60 min after the addition of the drug solution, 50 μL each was sampled. Acetonitrile (100 μL) was added and the mixture was admixed to discontinue the reaction. After discontinuation of the reaction, a protein elimination treatment was performed by centrifugation (15000 rpm, 5 min). The centrifugation supernatant (20 μL) was diluted with ammonium formate solution (100 mmol/L, pH 4, 180 μL), and subjected to the measurement by LC/MS/MS.
When the value at 2 min after the addition of the drug solution was less than the quantification limit, the half-life was calculated by the following method.
That is, the value at 0 min was taken as the theoretical concentration (1000 ng/mL) and the value at 2 min was taken as the quantitative lower limit concentration. The half-life (T1/2) was calculated from the inclination of the straight line connecting the logarithmic conversion values at the two points.

[2] = target: activated factor IIa (thrombin) (Homo sapiens, UniProt P00734); assay: Measurement of activated factor II (FIIa, thrombin)-inhibitory activity (chromogenic substrate S-2238); assay type: biochemical; conditions: negative logarithmic value of concentration suppressing reaction rate of control to 50%
Method: as §1, with “activated factor IIa (thrombin, 0.125 U/mL,” for “FXa (0.015 U/ml,”, “(0.1” for “(0.2”, “S-2238,” for “S-2222,”, “of” for “in the”, “(IIa)” for “(FXa)”

Row | SMILES | paPTT2 (human plasma) | IC50 (FXa) | half-life at 1 μg/mL [1] | IC50 [2]
1 | N=C(N)N1CCc2ccc(C(=O)OCC3CCN(c4ccncc4)CC3)cc2C1 [compound of Ex. 2, [1-(pyridin-4-yl)piperidin-4-yl]methyl 2-[amino(imino)methyl]-1,2,3,4-tetrahydroisoquinoline-7-carboxylate ditrifluoroacetate] | 5.4 | 0.398 µM | < 23.7 s | > 100 µM
2 | N=C(N)N1CCc2ccc(COC(=O)C3CCN(c4ccncc4)CC3)cc2C1 [compound of Ex. 3, {2-[amino(imino)methyl]-1,2,3,4-tetrahydroisoquinolin-7-yl}methyl 1-(pyridin-4-yl)piperidine-4-carboxylate ditrifluoroacetate] | 6.1 | 0.0794 µM | < 23.9 s | 63.1 µM
3 | N=C(N)N1CCc2ccc(OC(=O)C3(COCc4ccccc4)CCN(c4ccncc4)CC3)cc2C1 [compound of Ex. 5, 2-[amino(imino)methyl]-1,2,3,4-tetrahydroisoquinolin-7-yl 4-[(benzyloxy)methyl]-1-(pyridin-4-yl)piperidine-4-carboxylate ditrifluoroacetate] | 5.4 | 0.501 µM | – | 20 µM
4 | COCC1(C(=O)Oc2ccc3c(c2)CN(C(=N)N)CC3)CCN(c2ccncc2)CC1 [compound of Ex. 6, 2-[amino(imino)methyl]-1,2,3,4-tetrahydroisoquinolin-7-yl 4-methoxymethyl-1-(pyridin-4-yl)piperidine-4-carboxylate ditrifluoroacetate] | 5.4 | 1.58 µM | – | 39.8 µM
5 | N=C(N)N1Cc2ccc(C(=O)OCC3CCN(c4ccncc4)CC3)cc2C1 [compound of Ex. 7, [1-(pyridin-4-yl)piperidin-4-yl]methyl 2-[amino(imino)methyl]isoindoline-5-carboxylate ditrifluoroacetate] | 4.6 | 7.94 µM | – | > 100 µM
6 | N=C(N)N1Cc2ccc(COC(=O)C3CCN(c4ccncc4)CC3)cc2C1 [compound of Ex. 8, {2-[amino(imino)methyl]-isoindolin-5-yl}methyl 1-(pyridin-4-yl)piperidine-4-carboxylate ditrifluoroacetate] | <5 | 3.16 µM | – | > 100 µM
7 | CC(=N)N1CCC(Oc2ccc(COC(=O)c3ccc4c(c3)CN(C(=N)N)CC4)cc2)CC1 [compound of Ex. 15, 4-{[1-(1-iminoethyl)piperidin-4-yl]oxy}benzyl 2-[amino(imino)methyl]-1,2,3,4-tetrahydroisoquinoline-7-carboxylate ditrifluoroacetate] | 4.4 | 10 µM | – | > 100 µM
8 | CC(=N)N1CCC(Oc2ccc(C(=O)OCc3ccc4c(c3)CN(C(=N)N)CC4)cc2)CC1 [compound of Ex. 16, {2-[amino(imino)methyl]-1,2,3,4-tetrahydroisoquinolin-7-yl}methyl 4-{([1-(1-iminoethyl)piperidin-4-yl]oxy}benzoate ditrifluoroacetate] | 4.5 | 5.01 µM | – | > 100 µM
